{"source": "ChEMBL document CHEMBL4385609", "about": "“Anti-tubulin agents of natural origin: Targeting taxol, vinca, and colchicine binding domains” (Eur J Med Chem, 2019)", "key": {"[1]": {"target": "Tubulin", "test": "Inhibition of tubulin polymerization (unknown origin)", "type": "protein-complex assay, Homo sapiens"}, "[2]": {"system": "WiDr", "test": "Antiproliferative activity against human WiDr cells assessed as reduction in cell growth incubated for 48 hrs by MTT assay", "type": "functional, cell-based"}, "[3]": {"system": "HeLa", "test": "Antiproliferative activity against human HeLa cells assessed as reduction in cell growth incubated for 48 hrs by MTT assay", "type": "functional, cell-based"}, "[4]": {"test": "Antiproliferative activity against human […] cells assessed as reduction in cell growth incubated for 48 hrs by MTT assay", "type": "functional, cell-based"}, "[5]": {"system": "K562", "test": "Antiproliferative activity against human K562 cells assessed as reduction in cell growth incubated for 48 hrs by MTT assay", "type": "functional, cell-based", "conditions": "K562, 48 h"}, "[6]": {"test": "Antiproliferative activity against human MCF cells assessed as reduction in cell growth incubated for 48 hrs by MTT assay", "type": "functional, cell-based"}, "[7]": {"system": "A549", "test": "Antiproliferative activity against human A549 cells assessed as reduction in cell growth incubated for 48 hrs by MTT assay", "type": "functional, cell-based", "conditions": "A549, 48 h"}, "[8]": {"system": "P388", "test": "Antiproliferative activity against mouse P388 cells assessed as reduction in cell growth incubated for 48 hrs by MTT assay", "type": "functional, cell-based", "conditions": "P388, 48 h"}, "[9]": {"system": "MDA-MB-231", "test": "Antiproliferative activity against human MDA-MB-231 cells assessed as reduction in cell growth", "type": "functional, cell-based"}, "[10]": {"system": "A-375", "test": "Antiproliferative activity against human A375 cells assessed as reduction in cell growth incubated for 24 hrs by MTT assay", "type": "functional, cell-based", "conditions": "A-375, 24 h"}, "[11]": {"system": "A549", "test": "Antiproliferative activity against human A549 cells assessed as reduction in cell growth incubated for 24 hrs by MTT assay", "type": "functional, cell-based", "conditions": "A549, 24 h"}, "[12]": {"system": "MCF7", "test": "Antiproliferative activity against human MCF7 cells assessed as reduction in cell growth", "type": "functional, cell-based"}, "[13]": {"system": "BGC-823", "test": "Antiproliferative activity against human BGC823 cells assessed as reduction in cell growth incubated for 24 hrs by MTT assay", "type": "functional, cell-based", "conditions": "BGC-823, 24 h"}, "[14]": {"test": "Antiproliferative activity against mouse EMT6/AR1 cells assessed as reduction in cell growth", "type": "functional, cell-based"}, "[15]": {"system": "HeLa", "test": "Antiproliferative activity against human HeLa cells assessed as reduction in cell growth", "type": "functional, cell-based"}, "[16]": {"system": "CA46", "test": "Cytotoxicity against human CA46 cells assessed as inhibition of tubulin polymerization after 36 hrs", "type": "functional, cell-based", "conditions": "CA46, 36 h"}, "[17]": {"test": "Potency index, ratio of paclitaxel IC50 to laulimalide IC50 for cytotoxicity against human SKVLB-1 cells", "type": "functional"}, "[18]": {"species": "Bos taurus", "test": "Inhibition of bovine brain microtubule assembly at 250 uM by turbidimetric assay relative to control"}, "[19]": {"test": "Cytotoxicity against mouse tsFT210 cells", "type": "functional"}, "[20]": {"system": "HT-29", "test": "Antiproliferative activity against human HT-29 cells assessed as reduction in cell growth", "type": "functional, cell-based"}, "[21]": {"system": "P388", "test": "Antiproliferative activity against mouse P388 cells assessed as reduction in cell growth", "type": "functional, cell-based"}, "[22]": {"test": "Antiproliferative activity against human MEL28 cells assessed as reduction in cell growth", "type": "functional, cell-based", "conditions": "SK-MEL-28"}, "[23]": {"system": "A549", "test": "Antiproliferative activity against human A549 cells assessed as reduction in cell growth", "type": "functional, cell-based"}, "[24]": {"system": "U-937", "test": "Antiproliferative activity against human U937 cells assessed as reduction in cell growth", "type": "functional, cell-based"}, "[25]": {"system": "SKM-1", "test": "Antiproliferative activity against human SKM1 cells assessed as reduction in cell growth", "type": "functional, cell-based"}}}
{"smiles": "CC(C)(C)c1[nH]cnc1/C=c1\\[nH]c(=O)/c(=C/c2cc(F)ccc2F)[nH]c1=O", "values": [{"measurement": "IC50", "setting": "[1]", "value": 2.6, "unit": "nM"}]}
{"smiles": "C=CC(C)(C)c1[nH]cnc1/C=C1\\NC(=O)[C@H](Cc2ccccc2)NC1=O", "values": [{"measurement": "IC50", "setting": "[2]", "value": "180 to 330", "unit": "nM"}, {"measurement": "IC50", "setting": "[3]", "value": "180 to 330", "unit": "nM"}, {"measurement": "IC50", "setting": "[4]", "value": "180 to 330", "unit": "nM"}, {"measurement": "IC50", "setting": "[5]", "value": "180 to 330", "unit": "nM"}, {"measurement": "IC50", "setting": "[6]", "value": "180 to 330", "unit": "nM"}, {"measurement": "IC50", "setting": "[7]", "value": "180 to 330", "unit": "nM"}, {"measurement": "IC50", "setting": "[8]", "value": "180 to 330", "unit": "nM"}]}
{"smiles": "COc1cc(/C=N/OC/C=C/C=C(\\C)CCC(O)c2cccs2)cc(OC)c1OC", "note": "(centres undefined)", "values": [{"measurement": "IC50", "setting": "[9]", "value": 120, "unit": "nM"}]}
{"smiles": "CC[C@@]1(C)Oc2cc(c([S+]([O-])CCCCCO)cc2O)[C@@H](O)[C@H](NC)C(=O)N[C@@H](C(C)C)C(=O)NC1C(=O)NCC(=O)O", "note": "(some centres undefined)", "values": [{"measurement": "IC50", "setting": "[10]", "value": 22500, "unit": "nM"}, {"measurement": "IC50", "setting": "[11]", "value": 36500, "unit": "nM"}]}
{"smiles": "C=CCC1(CC/C(C)=C/C=C/CC/C=C\\[C@]2(C)CSC([C@@H]3C[C@@H]3C)=N2)OCCO1", "values": [{"measurement": "IC50", "setting": "[12]", "value": 30, "unit": "nM"}]}
{"smiles": "CC[C@@]1(C)Oc2cc(c([S+]([O-])C[C@@H](O)C[C@H](N)C(=O)O)cc2O)[C@@H](O)[C@H](NC)C(=O)N[C@@H](C)C(=O)NC1C(=O)NCC(=O)O", "note": "(some centres undefined)", "values": [{"measurement": "IC50", "setting": "[13]", "value": 1030, "unit": "nM"}]}
{"smiles": "CC(C)(C)c1[nH]cnc1/C=c1\\[nH]c(=O)/c(=C/C(=O)c2ccccc2)[nH]c1=O", "values": [{"measurement": "IC50", "setting": "[1]", "value": 1400, "unit": "nM"}]}
{"smiles": "COc1cc2cc(c1Cl)N(C)C(=O)C[C@H](OC(=O)C(C)C)[C@]1(C)O[C@@H]1[C@H](C)[C@@H]1C[C@@](O)(NC(=O)O1)[C@H](OC)/C=C/C=C(\\C)C2", "note": "[ANSAMITOCIN P3]", "values": [{"measurement": "IC50", "setting": "[9]", "value": 15.1, "unit": "nM"}, {"measurement": "IC50", "setting": "[14]", "value": 141, "unit": "nM"}, {"measurement": "IC50", "setting": "[12]", "value": 2.06, "unit": "nM"}, {"measurement": "IC50", "setting": "[15]", "value": 5.06, "unit": "nM"}]}
{"smiles": "COc1ccc(-c2oc3cc(O)c(OC)c(O)c3c(=O)c2OC)cc1O", "note": "[CENTAUREIDIN]", "values": [{"measurement": "IC50", "setting": "[16]", "value": 2000, "unit": "nM"}]}
{"smiles": "C=C1C[C@H](C)C[C@@H]2CC=C[C@@H](C/C=C\\C(=O)O[C@H]([C@@H](O)/C=C/[C@@H]3CC(C)=CCO3)C[C@@H]3O[C@H]3[C@@H](O)C1)O2", "note": "[FIJIANOLIDE B]", "values": [{"measurement": "Ratio IC50", "setting": "[17]", "value": 100}]}
{"smiles": "COc1ccc2c(C[C@@H]3NC(=O)[C@@H]4CCCN4C3=O)c(CC=C(C)C)[nH]c2c1", "note": "[TRYPROSTATIN A]", "values": [{"measurement": "inhibition", "setting": "[18]", "value": 40, "unit": "%"}, {"measurement": "MIC", "setting": "[19]", "value": 16.4, "unit": "µM"}]}
{"smiles": "CC(C)=CCc1[nH]c2ccccc2c1C[C@@H]1NC(=O)[C@@H]2CCCN2C1=O", "note": "[TRYPROSTATIN B]", "values": [{"measurement": "MIC", "setting": "[19]", "value": 4.4, "unit": "µM"}]}
{"smiles": "C=C1C[C@@H]2C/C=C/C(=O)C/C(C)=C\\C=C\\C(=O)O[C@H]([C@H](O)NC(=O)/C=C\\C=C\\C)C/C(C)=C/[C@H](C1)O2", "note": "[ZAMPANOLIDE]", "values": [{"measurement": "IC50", "setting": "[20]", "value": "1 to 5", "unit": "ng/mL"}, {"measurement": "IC50", "setting": "[21]", "value": "1 to 5", "unit": "ng/mL"}, {"measurement": "IC50", "setting": "[22]", "value": "1 to 5", "unit": "ng/mL"}, {"measurement": "IC50", "setting": "[23]", "value": "1 to 5", "unit": "ng/mL"}, {"measurement": "IC50", "setting": "[24]", "value": 2.9, "unit": "nM"}, {"measurement": "IC50", "setting": "[25]", "value": 1.1, "unit": "nM"}]}
